Consider seven molecules from paper PMC7915527, “Development of a Liquid Chromatography/Mass Spectrometry-Based Inhibition Assay for the Screening of Steroid 5-α Reductase in Human and Fish Cell Lines” (Molecules, 2021).

Where “and” joins values, the source holds several entries; their conditions need not be identical. Equal values may be shown once. Read-outs that look alike come from different tables or passages of the source.

The subject of series [1] is 5AR in RTG-2 cells. Kind of series: Cell-based 5AR activity/inhibition assay in rainbow trout gonad cells (RTG-2). As to the method:
(§1) For the calculation of KM for optimized assay conditions, ZFL and RTG-2 cells were treated with testosterone in increments of 0 to 50 µM. The DHT levels were measured (Figure 5a). Based on the calculated KM values, inhibition assays were conducted (Figure 5b).
(§2) HEK-293, LNCaP, DU-145, SW-13, and ZFL cell lines were obtained from the American Type Culture Collection (ATCC; Manassas, VA, USA) and cultured according to their instructions. The HEK-293 cells were cultured in a high-glucose DMEM that contained 10% FBS, 100 units/mL penicillin, and 100 µg/mL streptomycin. The DU-145 cells were cultured in EMEM that contained 10% FBS, 100 units/mL penicillin, and 100 µg/mL streptomycin. The LNCaP cells were cultured in RPMI 1640 that contained 10% FBS, 100 units/mL penicillin, and 100 µg/mL streptomycin at 37 °C in 5% CO2. SW-13 cells were cultured in Leibovitz’s L-15 medium with 10% FBS at 37 °C without CO2. ZFL cells were cultured in a complete medium that was composed of 50% L-15, 35% DMEM medium, and 15% F12 medium that contained […] sodium bicarbonate, 15 mM HEPES, 0.01 mg/mL bovine insulin, 50 ng/mL mouse EGF, 5% FBS, and 0.5% trout serum at 28 °C without CO2. RTG-2 cells were obtained from Prof. Kristin Schirmer (EAWAG, Switzerland) and cultured in the L-15 medium with 5% FBS, 100 units/mL penicillin, and 100 µg/mL streptomycin at 20 °C without CO2.
(§3) All cells were seeded on a 24-well plate. The seeding densities of the DU-145, LNCaP, and SW-13 cells were 0.5 × 10^5 cells per well. The ZFL and RTG-2 cells were seeded at densities of 1.0 × 10^5 cells and 2.0 × 10^5 cells, respectively. After overnight culture, the culture media was aspirated from each well and treated with testosterone that was diluted in the complete medium for 3 h and 6 h. In the case of transiently transfected HEK-293 cells, the testosterone treatment was applied after transient overexpression under the same conditions as other cell lines. The treated media were collected from each well and centrifuged at 3000× g for 5 min at 4 °C. The supernatants were stored at −80 °C until needed. […] The seeding conditions of all cells were the same as those previously described. After overnight culture, the culture medium was aspirated, and the cells were cotreated with a medium that contained testosterone and inhibitors for 3 h. The medium was collected from each well and centrifuged at 3000× g for 5 min at 4 °C. The supernatants were stored at −80 °C until analysis.
A method that was modified by was used for DHT extraction from the samples. Each sample, which included the calibration, QC, and assay medium, was placed in 1.5 mL PP tubes and spiked with a 0.5 ng/mL DHT-D3 internal standard prior to extraction. All sample tubes were vortexed for 5 s, and the samples were extracted using a liquid-liquid extraction (LLE) method via the addition of 600 µL of MTBE. The samples were vortexed and centrifuged at 4500× g rpm for 5 min, and the organic phase was transferred into glass tubes. The extraction step was repeated once, and the organic phase extracts were dried under a stream of nitrogen. After the samples were dried, 100 µL of the derivatization reagent and 100 µL of TEA were added for DHT derivatization. […]
(§4) The extracts were analyzed for DHT via ultra-performance LC-MS/MS (Agilent 1200/6460C QQQMSD coupled Jet Stream technology electrospray ion (ESI) source; Agilent Technologies, Santa Clara, CA, USA).

Series [2] deals with 5AR in ZFL cells. Kind of series: Cell-based 5AR activity/inhibition assay in zebrafish liver cells (ZFL). The procedure: as §1, §2, §3
A method that was modified by was used for DHT extraction from the samples. […]
as §4

For series [3], the target named is T1, SRD5A2 (Homo sapiens, UniProt P31213).
T1 sequence (P31213 1-254): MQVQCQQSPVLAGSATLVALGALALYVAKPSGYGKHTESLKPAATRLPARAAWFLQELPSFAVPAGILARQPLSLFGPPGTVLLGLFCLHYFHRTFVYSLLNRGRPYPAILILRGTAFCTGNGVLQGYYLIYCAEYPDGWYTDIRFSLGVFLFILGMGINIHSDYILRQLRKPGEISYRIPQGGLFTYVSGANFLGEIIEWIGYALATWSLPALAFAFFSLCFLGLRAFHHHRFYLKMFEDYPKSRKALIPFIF
Kind of series: Cell-based 5AR activity/inhibition assay in HEK-293 cells transiently overexpressing SRD5A2. The note with it: 95% CI in parentheses. As to the method:
(§5) For the calculation of KM, testosterone was added in increments of 0 to 50 µM to non-vector- and SRD5A1-HEK293 cells and in increments of 0 to 10 µM to SRD5A2-HEK293 cells 24 h after transfection. The DHT levels were measured (Figure 4a). […] The IC50 values were calculated (Table 3).
(§6) Transient overexpression was induced using transfection of cDNA with lipofectamine (Thermo Fisher Scientific, Waltham, MA, USA). HEK-293 cells were seeded in 24-well plates at a density of 10^5 cells per well and incubated at 37 °C in an atmosphere of 5% CO2. After overnight culture, 500 ng of cDNA and 0.75 µL of the Lipofectamine 3000 reagent were diluted in the Opti-MEM medium and incubated for 15 min for DNA-lipid complex formation. The DNA-lipid complex was added to the wells and incubated for 6 h. After incubation, the sample-treated medium was changed to the complete culture medium and incubated for 18 h.
(§7) All cells were seeded on a 24-well plate. The seeding densities of the DU-145, LNCaP, and SW-13 cells were 0.5 × 10^5 cells per well. The ZFL and RTG-2 cells were seeded at densities of 1.0 × 10^5 cells and 2.0 × 10^5 cells, respectively. […]
(§8) The extracts were analyzed for DHT via ultra-performance LC-MS/MS (Agilent 1200/6460C QQQMSD coupled Jet Stream technology electrospray ion (ESI) source; Agilent Technologies, Santa Clara, CA, USA). […]

Series [4] concerns the target T2, SRD5A1 (Homo sapiens, UniProt P18405).
T2 sequence (P18405 1-259): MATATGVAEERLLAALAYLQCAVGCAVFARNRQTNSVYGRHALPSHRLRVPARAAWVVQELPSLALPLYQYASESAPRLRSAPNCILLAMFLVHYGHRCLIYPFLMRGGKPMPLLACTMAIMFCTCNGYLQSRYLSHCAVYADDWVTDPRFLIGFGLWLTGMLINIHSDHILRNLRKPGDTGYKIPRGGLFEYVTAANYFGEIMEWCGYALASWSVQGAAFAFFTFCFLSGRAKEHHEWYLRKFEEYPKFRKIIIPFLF
Kind of series: Cell-based 5AR activity/inhibition assay in HEK-293 cells transiently overexpressing SRD5A1. The note with it: IC50 Value, SRD5A1-overexpressing HEK-293 cells; testosterone at KM, 3 h; 95% CI in parentheses. As to the method: as §5, §6, §7, §8

The target in series [5] is rat and human 5α-reductase. Further details: method as in PMID 14753249, PMID 8645628, PMID 7734404, PMID 9605412, PMID 16818707. The note with it: ref [14],[43],[44],[45],[46],[47]; cited from earlier work.
In series [6] the target is T3, 5AR (SRD5A1) in DU-145 cells (Homo sapiens, UniProt P18405).
T3 sequence (P18405 1-259): T2 sequence (P18405 1-259)
The note with it: DHT formation from testosterone 0 to 10 µM, 95% CI in parentheses.

Substrate in series [7]: C[C@]12CC[C@H]3[C@@H](CCC4=CC(=O)CC[C@@]43C)[C@@H]1CC[C@@H]2O
Kind of series: cells, lysate or membranes. As to conditions: 95% CI in parentheses.

[8] abbreviates: read-out: IC50 Value, testosterone at KM, 3 h, 95% CI in parentheses.
Where [9] appears, read: testosterone at KM, 3 h, 95% CI in parentheses, read-out: IC50 Value.
Setting [10] is: testosterone 0 to 50 µM, 95% CI in parentheses.
Where [11] appears, read: other: LNCaP cells, testosterone 0 to 10 µM.
The mark [12] stands for this setting: other: SRD5A1-HEK293 cells, testosterone 0 to 50 µM, 37.0 °C.
[13] abbreviates: other: DU-145 cells, testosterone 0 to 10 µM.
The mark [14] stands for this setting: other: SRD5A2-HEK293 cells, testosterone 0 to 10 µM, 37.0 °C.

As for `C[C@]12C=CC(=O)N[C@@H]1CC[C@@H]1[C@@H]2CC[C@]2(C)[C@@H](C(=O)Nc3cc(C(F)(F)F)ccc3C(F)(F)F)CC[C@@H]12` [Dutasteride, dutasteride], the IC50 is 13.2 nM in series [1] (setting [8]); 7.33 nM in series [2] (setting [8]); 1.19 nM in series [3] (IC50 Value, SRD5A2-overexpressing HEK-293 cells, testosterone at KM, 3 h); 1.27 nM in series [4]; 0.2 to 7 nM in series [5].
Take `CC(C)(C)NC(=O)[C@H]1CC[C@H]2[C@@H]3CC[C@H]4NC(=O)C=C[C@]4(C)[C@H]3CC[C@]12C` [Finasteride, finasteride]: the half-maximal inhibitory concentration (IC50) was found to be 2460 nM in series [1] (testosterone at KM, 3 h, 95% CI in parentheses, listed as finasteride, read-out: IC50 Value); 2670 nM in series [1] (setting [9]); 142 nM in series [2] (setting [9]).
Consider `C[C@]12CC[C@H]3[C@@H](CCC4=CC(=O)CC[C@@]43C)[C@@H]1CC[C@@H]2O` [testosterone], for which the Km in series [1] (setting [10]) was found to be 1.12 nM; in series [2] (setting [10]), 0.46 nM. In addition, the Vmax is 13.09 (11.88–14.37) nmol L^−1 h^−1 in series [1] (setting [10]); 116.6 nmol L^−1 h^−1 and 116.60 (106.9–126.9) nmol L^−1 h^−1 in series [2] (setting [10]); 22.52 nmol/L/h in series [3] (SRD5A2-HEK293 cells, testosterone 0 to 10 µM); 75.55 nmol/L/h in series [6].

B1: 5AR (SRD5A1) in LNCaP cells (Homo sapiens) (protein)
chain: T2 sequence (P18405 1-259)
With B1, in series [7] (setting [11]), the Km is given as 15.10 (12.35–19.25) nM and the Vmax stood at 0.000644 µM/min.

B2: SRD5A1 (Homo sapiens) (protein)
chain: T2 sequence (P18405 1-259)
Regarding B2, in series [7] (setting [12]), the Km is given as 2.29 (1.70–3.09) nM and the Vmax was found to be 0.000143 µM/min.

B3: 5AR (SRD5A1) in DU-145 cells (Homo sapiens) (protein)
chain: T2 sequence (P18405 1-259)
Regarding B3, in series [7] (setting [13]), the Km is on record as 9.15 (7.01–12.81) nM and the Vmax came to 0.00126 µM/min.

B4: SRD5A2 (Homo sapiens) (protein)
chain: T1 sequence (P31213 1-254)
In the case of B4, in series [7] (setting [14]), the Km is listed as 0.36 (0.18–0.65) nM and the Vmax amounted to 0.000375 µM/min.
